Target: T1, TRPC3 (Homo sapiens, UniProt Q13507)
T1 sequence (Q13507 1-921): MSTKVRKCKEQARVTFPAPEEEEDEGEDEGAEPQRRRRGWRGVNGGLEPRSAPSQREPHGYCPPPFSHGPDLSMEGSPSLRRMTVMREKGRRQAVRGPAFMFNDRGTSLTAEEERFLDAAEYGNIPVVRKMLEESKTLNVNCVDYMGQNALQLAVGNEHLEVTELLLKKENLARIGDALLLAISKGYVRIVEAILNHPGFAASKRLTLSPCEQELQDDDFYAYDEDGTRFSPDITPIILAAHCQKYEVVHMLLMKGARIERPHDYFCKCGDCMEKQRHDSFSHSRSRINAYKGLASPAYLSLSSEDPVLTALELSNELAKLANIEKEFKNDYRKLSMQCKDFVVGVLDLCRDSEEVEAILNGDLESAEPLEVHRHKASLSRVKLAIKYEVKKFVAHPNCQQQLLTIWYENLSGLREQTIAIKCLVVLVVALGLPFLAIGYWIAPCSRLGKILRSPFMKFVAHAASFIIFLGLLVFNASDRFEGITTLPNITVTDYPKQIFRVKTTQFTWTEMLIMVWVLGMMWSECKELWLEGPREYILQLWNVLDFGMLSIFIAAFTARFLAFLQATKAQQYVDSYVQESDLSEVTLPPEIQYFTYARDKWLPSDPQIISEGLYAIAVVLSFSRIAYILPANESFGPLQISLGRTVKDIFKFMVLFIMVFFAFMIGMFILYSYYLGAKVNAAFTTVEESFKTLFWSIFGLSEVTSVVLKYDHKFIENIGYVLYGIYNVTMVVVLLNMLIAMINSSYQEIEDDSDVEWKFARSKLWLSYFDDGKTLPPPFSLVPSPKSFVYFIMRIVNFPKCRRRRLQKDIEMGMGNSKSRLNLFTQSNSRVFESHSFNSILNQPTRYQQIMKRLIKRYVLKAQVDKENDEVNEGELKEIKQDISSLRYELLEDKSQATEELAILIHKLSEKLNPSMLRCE
Assay: whole-cell patch clamp of HEK293 cells transfected with hTRPC3, currents activated by GSK1702934A
Type: cell-based
Parameters: expressed in transfected cells; host or cells: HEK293 (CRL-1573), transient transfection, pMO vector
Conditions: for inhibition at 10 µM: 10 μM compound in presence of agonist GSK1702934A, HEK293 whole-cell peak current, read-out: hTRPC3 % Inhibition at 10 μM (mean ± SEM); for IC50: agonist GSK1702934A, HEK293 whole-cell patch clamp, read-out: hTRPC3 IC50 (μM, mean ± SEM)
Experimental: Human embryonic kidney 293 (HEK293; catalog number CRL-1573) cells were cultured in Dulbecco's modified Eagle's medium (Invitrogen) supplemented with 10% fetal bovine serum and 1% penicillin-streptomycin at 37° C. and 5% CO2. Constructs cloned in pMO (a pcDNA3-modified vector) were co-transfected with GFP-pMO, using Lipofectamine 2000 (Invitrogen) according to the manufacturer's instructions. Macroscopic currents in the whole-cell patch clamp configuration were recorded 18-24 h post-transfection. The extracellular solution contained 140 mM NaCl, 6 mM KCl, 2 mM MgCl2, 10 mM HEPES, and 10 mM glucose (pH 7.4). Pipettes were made of borosilicate glass (outer diameter, 1.5 mm; inner diameter, 1.10 mm; Sutter Instruments) and fire-polished with a resistance between 2.8 and 4.0 megaohms when filled with an intracellular solution that contained 140 mM CsCl, 5 mM EGTA, and 10 mM HEPES, pH 7.2. Currents were recorded with a Multiclamp 700B amplifier (Molecular Devices) using a 1-s ramp from −100 to 100 mV. Agonist and antagonists perfused were dissolved in the bath solution prior experiments: TRP channel agonists Allyl isothiocyanate (AITC; TRPA1), capsaicin (TRPV1), and menthol (TRPM8) were obtained from Sigma, GSK1016790A (TRPV4) from Cayman chemicals, and GSK1702934A (TRPC3, TRPC6 and TRPC7) from Tocris Bioscience. Antagonist Pyr3 was obtained from Tocris Bioscience, all other antagonists were synthesized in house. Data were acquired with a sampling rate of 20 kHz, low-pass filtered (10 kHz), and analyzed offline using Clampfit v10.4.2.0 (Molecular Devices).
Electrophysiology results were expressed as means±SD. Data were plotted, and sigmoidal fitting was done using OriginPro (from OriginLab), with the following Boltzmann function:
Using the patch clamp technique in the whole-cell configuration, compounds were screened by challenging hTRPC3 overexpressing HEK293 cells with GSK1702934A to activate TRPC3 and each of the synthesized compounds (10 μM) individually in the presence of the agonist.
To avoid tachyphylaxis and determine the IC50 of compound 22, each point of the dose response curve (FIG. 1B) was done individually on a cell and exchanging coverslips between cells. […] FIGS. 1D-1I show the inhibition of TRPC3-mediated currents by compound 22 and Pyr3 (serving as the reference control). […] Similar results were obtained when OAG was used as the agonist (data not shown).

inhibition at 10 µM [%]	IC50 [µM]	Compound
47.1 ± 8.29	–	CCNC(=O)c1nnn(-c2ccc(-n3ccc(Cl)c(Cl)c3=O)cc2)c1C(F)(F)F [Compound 61, 1-(4-(3,4-dichloro-2-oxopyridin-1(2H)-yl)phenyl)-N-ethyl-5-(trifluoromethyl)-1H-1,2,3-triazole-4-carboxamide]
39.1 ± 2.31	–	CCOC(=O)c1cnn(-c2ccc(-n3cc(Cl)c(Cl)c(Cl)c3=O)cc2)c1C(F)(F)F [Compound 9, Ethyl 1-(4-(3,4,5-trichloro-2-oxopyridin-1(2H)-yl)phenyl)-5-(trifluoromethyl)-1H-pyrazole-4-carboxylate]
97.23 ± 0.89	1.1 ± 0.24	CCNC(=O)c1cn(-c2ccc(-n3ccc(Cl)c(Cl)c3=O)cc2)nc1C(F)(F)F [Compound 49, 1-(4-(3,4-dichloro-2-oxopyridin-1(2H)-yl)phenyl)-N-ethyl-3-(trifluoromethyl)-1H-pyrazole-4-carboxamide]
86.7 ± 3.82	–	O=C(c1cnn(-c2ccc(-n3ccc(Cl)c(Cl)c3=O)cc2)c1C(F)(F)F)N1CCCC1 [Compound 45, 3,4-dichloro-1-(4-(4-(pyrrolidine-1-carbonyl)-5-(trifluoromethyl)-1H-pyrazol-1-yl)phenyl)pyridin-2(1H)-one]
67.8 ± 1.75	–	CCNS(=O)(=O)c1cnn(-c2ccc(-n3ccc(Cl)c(Cl)c3=O)cc2)c1C(F)(F)F [Compound 48, 1-(4-(3,4-dichloro-2-oxopyridin-1(2H)-yl)phenyl)-N-ethyl-5-(trifluoromethyl)-1H-pyrazole-4-sulfonamide]
71.1 ± 2.66	–	CCOC(=O)c1cnn(-c2ccc(-n3ccc(Cl)cc3=O)cc2)c1C(F)(F)F [Compound 2, Ethyl 1-(4-(4-chloro-2-oxopyridin-1(2H)-yl)phenyl)-5-(trifluoromethyl)-1H-pyrazole-4-carboxylate]
86.9 ± 3.83	–	CCNC(=O)c1nn(-c2ccc(-n3ccc(Cl)c(Cl)c3=O)cc2)nc1C(F)(F)F [Compound 63, 2-(4-(3,4-dichloro-2-oxopyridin-1(2H)-yl)phenyl)-N-ethyl-5-(trifluoromethyl)-2H-1,2,3-triazole-4-carboxamide]
89.4 ± 6.45	–	CCNC(=O)c1cnn(-c2ccc(-n3ccc(C(F)(F)F)c(Cl)c3=O)cc2)c1C(F)(F)F [Compound 27, 1-(4-(3-chloro-2-oxo-4-(trifluoromethyl)pyridin-1(2H)-yl)phenyl)-N-ethyl-5-(trifluoromethyl)-1H-pyrazole-4-carboxamide]
57.8 ± 8.74	–	CC(=O)c1cnn(-c2ccc(-n3ccc(C)c(Cl)c3=O)cc2)c1C(F)(F)F [Compound 71, 1-(4-(4-acetyl-5-(trifluoromethyl)-1H-pyrazol-1-yl)phenyl)-3-chloro-4-methylpyridin-2(1H)-one]
60.4 ± 5.12	–	CC(=O)c1cnn(-c2ccc(-n3ccc(Cl)cc3=O)cc2)c1C(F)(F)F [Compound 66, 1-(4-(4-acetyl-5-(trifluoromethyl)-1H-pyrazol-1-yl)phenyl)-4-chloropyridin-2(1H)-one]

The remaining lines, values behind:

Compound	inhibition at 10 µM [%]	IC50 [µM]
CCNCc1cnn(-c2ccc(-n3ccc(Cl)c(Cl)c3=O)cc2)c1C(F)(F)F [Compound 74, 3,4-dichloro-1-(4-(4-((ethylamino)methyl)-5-(trifluoromethyl)-1H-pyrazol-1-yl)phenyl)pyridin-2(1H)-one]	97.96 ± 0.83	0.09 ± 0.02
CCNC(=O)c1cnn(-c2ccc(-n3ccc(Cl)cc3=O)cc2)c1C(F)(F)F [Compound 21, 1-(4-(4-chloro-2-oxopyridin-1(2H)-yl)phenyl)-N-ethyl-5-(trifluoromethyl)-1H-pyrazole-4-carboxamide]	84.52 ± 0.722	–
CCNC(=O)c1cnn(-c2ccc(-n3ccc(O)c(Cl)c3=O)cc2)c1C(F)(F)F [Compound 32, 1-(4-(3-chloro-4-hydroxy-2-oxopyridin-1(2H)-yl)phenyl)-N-ethyl-5-(trifluoromethyl)-1H-pyrazole-4-carboxamide]	96 ± 1.37	0.35 ± 0.09
CCN(CC)C(=O)c1cnn(-c2ccc(-n3ccc(Cl)c(Cl)c3=O)cc2)c1C(F)(F)F [Compound 43, 1-(4-(3,4-dichloro-2-oxopyridin-1(2H)-yl)phenyl)-N,N-diethyl-5-(trifluoromethyl)-1H-pyrazole-4-carboxamide]	94.8 ± 2.75	4.32 ± 0.98
CCNC(=O)c1cnn(-c2ccc(-n3ccc(Cl)c(Cl)c3=O)cc2)c1C#N [Compound 52, 5-cyano-1-(4-(3,4-dichloro-2-oxopyridin-1(2H)-yl)phenyl)-N-ethyl-1H-pyrazole-4-carboxamide]	88.8 ± 6.37	–
CCNC(=O)c1cnn(-c2ccc(-n3ccc(Cl)c(F)c3=O)cc2)c1C(F)(F)F [Compound 24]	55.5 ± 7.07	–
NC(=O)c1cnn(-c2ccc(-n3ccc(Cl)c(Cl)c3=O)cc2)c1C(F)(F)F [Compound 37, 1-(4-(3,4-dichloro-2-oxopyridin-1(2H)-yl)phenyl)-5-(trifluoromethyl)-1H-pyrazole-4-carboxamide]	40.2 ± 10.3	–
CCNC(=O)c1ncn(-c2ccc(-n3ccc(Cl)c(Cl)c3=O)cc2)c1C(F)(F)F [Compound 59, 1-(4-(3,4-dichloro-2-oxopyridin-1(2H)-yl)phenyl)-N-ethyl-5-(trifluoromethyl)-1H-imidazole-4-carboxamide]	95.9 ± 3.72	0.87 ± 0.17
CCNC(=O)c1cnn(-c2ccc(-n3cc(Cl)c(Cl)c(Cl)c3=O)cc2)c1C(F)(F)F [Compound 33]	45.2 ± 3.59	–
CCCC(N)c1cnn(-c2ccc(-n3ccc(Cl)c(Cl)c3=O)cc2)c1C(F)(F)F (stereo not drawn) [Compound 76, 1-(4-(4-(1-aminobutyl)-5-(trifluoromethyl)-1H-pyrazol-1-yl)phenyl)-3,4-dichloropyridin-2(1H)-one]	33 ± 5.58	–
CC(C)NC(=O)c1cnn(-c2ccc(-n3ccc(Cl)c(Cl)c3=O)cc2)c1C(F)(F)F [Compound 41, 1-(4-(3,4-dichloro-2-oxopyridin-1(2H)-yl)phenyl)-N-isopropyl-5-(trifluoromethyl)-1H-pyrazole-4-carboxamide]	25.8 ± 8.57	–
CCc1nnc(-c2cnn(-c3ccc(-n4ccc(Cl)c(Cl)c4=O)cc3)c2C(F)(F)F)o1 [Compound 46, 3,4-dichloro-1-(4-(4-(5-ethyl-1,3,4-oxadiazol-2-yl)-5-(trifluoromethyl)-1H-pyrazol-1-yl)phenyl)pyridin-2(1H)-one]	92.9 ± 6.78	0.29 ± 0.05
CCOCc1cnn(-c2ccc(-n3ccc(Cl)c(Cl)c3=O)cc2)c1C(F)(F)F [Compound 78, 3,4-dichloro-1-(4-(4-(ethoxymethyl)-5-(trifluoromethyl)-1H-pyrazol-1-yl)phenyl)pyridin-2(1H)-one]	68.3 ± 2.11	–
CC(=O)c1cnn(-c2ccc(-n3ccc(Cl)c(Cl)c3=O)cc2)c1C(F)(F)F [Compound 67, 1-(4-(4-acetyl-5-(trifluoromethyl)-1H-pyrazol-1-yl)phenyl)-3,4-dichloropyridin-2(1H)-one]	88.7 ± 2.83	–

Reference: patent US20230265068A1, “TRANSIENT RECEPTOR POTENTIAL CANONICAL 3 INHIBITORS AND METHODS OF USE THEREOF” (University of Tennessee Research Foundation, priority 2020, published 2023)
